# Species: Rattus norvegicus
# Assay: Open TG-GATES - Regimen: Single
# Format: toxicity, organism-based, Sprague-Dawley
# Parameters: regimen Single, gender Male, age 6 weeks
# Details: in vivo, po, 100 mg/kg, route gavage, dose level Middle; for APTT / Bas / Eos / Fbg / Hb / Ht / Lym / MCH / MCHC / MCV / Mono / Neu / PT / Plat / RBC / Ret / WBC: tissue Blood; for KIDNEY_L / KIDNEY_R / KIDNEY_TOTAL: tissue Kidney; for LIVER: tissue Liver; for A/G / ALP / ALT / AST / BUN / CRE / Ca / Cl / DBIL / GLC / IP / K / LDH / Na / PL / RALB / TBIL / TC / TG / TP / gamma-GTP: tissue Plasma
compound,measurement,setting,value
Brc1ccccc1 [BROMOBENZENE],TERMINAL_BW,3 h,191 g
same,APTT,3 h,16 s
same,Bas,3 h,0%
same,Eos,3 h,0.6%
same,Fbg,3 h,266.6 mg/dL
same,Hb,3 h,13.4 g/dL
same,Ht,3 h,40.5%
same,Lym,3 h,79.2%
same,MCH,3 h,21.4 pg
same,MCHC,3 h,33%
same,MCV,3 h,64.7 fL
same,Mono,3 h,3.6%
same,Neu,3 h,16%
same,PT,3 h,12.3 s
same,Plat,3 h,111.5 x10_4/uL
same,RBC,3 h,625.8 x10_4/ul
same,Ret,3 h,10%
same,WBC,3 h,74.4 x10_2/uL
same,KIDNEY_L,3 h,0.8 g
same,KIDNEY_R,3 h,0.8 g
same,KIDNEY_TOTAL,3 h,1.6 g
same,LIVER,3 h,7.8 g
same,A/G,3 h,0.9
same,ALP,3 h,1591.2 IU/L
same,ALT,3 h,51 IU/L
same,AST,3 h,76.8 IU/L
same,BUN,3 h,8.6 mg/dL
same,CRE,3 h,0.2 mg/dL
same,Ca,3 h,11 mg/dL
same,Cl,3 h,105.8 meq/L
same,DBIL,3 h,0.004 mg/dL
same,GLC,3 h,183 mg/dL
same,IP,3 h,11.1 mg/dL
same,K,3 h,3.9 meq/L
same,LDH,3 h,80.8 IU/L
same,Na,3 h,142.8 meq/L
same,PL,3 h,155.6 mg/dL
same,RALB,3 h,2.7 g/dL
same,TBIL,3 h,0.044 mg/dL
same,TC,3 h,87.4 mg/dL
same,TG,3 h,42.6 mg/dL
same,TP,3 h,5.7 g/dL
same,gamma-GTP,3 h,1.2 IU/L
same,TERMINAL_BW,6 h,190.5 g
same,APTT,6 h,15.9 s
same,Bas,6 h,0%
same,Eos,6 h,0.8%
same,Fbg,6 h,269.2 mg/dL
same,Hb,6 h,13.4 g/dL
same,Ht,6 h,39.7%
same,Lym,6 h,78.8%
same,MCH,6 h,21.4 pg
same,MCHC,6 h,33.8%
same,MCV,6 h,63.3 fL
same,Mono,6 h,2.4%
same,Neu,6 h,17.6%
same,PT,6 h,12.4 s
same,Plat,6 h,107.8 x10_4/uL
same,RBC,6 h,627 x10_4/ul
same,Ret,6 h,8.6%
same,WBC,6 h,68.9 x10_2/uL
same,KIDNEY_L,6 h,0.8 g
same,KIDNEY_R,6 h,0.8 g
same,KIDNEY_TOTAL,6 h,1.6 g
same,LIVER,6 h,6.8 g
same,A/G,6 h,0.9
same,ALP,6 h,1550 IU/L
same,ALT,6 h,41.8 IU/L
same,AST,6 h,75.4 IU/L
same,BUN,6 h,9.4 mg/dL
same,CRE,6 h,0.1 mg/dL
same,Ca,6 h,10.8 mg/dL
same,Cl,6 h,105.4 meq/L
same,DBIL,6 h,0.014 mg/dL
same,GLC,6 h,179.8 mg/dL
same,IP,6 h,11 mg/dL
same,K,6 h,3.8 meq/L
same,LDH,6 h,64.4 IU/L
same,Na,6 h,141.2 meq/L
same,PL,6 h,137.8 mg/dL
same,RALB,6 h,2.6 g/dL
same,TBIL,6 h,0.054 mg/dL
same,TC,6 h,78.4 mg/dL
same,TG,6 h,41.4 mg/dL
same,TP,6 h,5.6 g/dL
same,gamma-GTP,6 h,1.6 IU/L
same,TERMINAL_BW,9 h,190 g
same,APTT,9 h,15.5 s
same,Bas,9 h,0%
same,Eos,9 h,0.6%
same,Fbg,9 h,266.4 mg/dL
same,Hb,9 h,13.5 g/dL
same,Ht,9 h,40.2%
same,Lym,9 h,76.8%
same,MCH,9 h,21.5 pg
same,MCHC,9 h,33.6%
same,MCV,9 h,63.9 fL
same,Mono,9 h,2.2%
same,Neu,9 h,19.4%
same,PT,9 h,12.3 s
same,Plat,9 h,115.9 x10_4/uL
same,RBC,9 h,629 x10_4/ul
same,Ret,9 h,9.1%
same,WBC,9 h,79.5 x10_2/uL
same,KIDNEY_L,9 h,0.8 g
same,KIDNEY_R,9 h,0.8 g
same,KIDNEY_TOTAL,9 h,1.5 g
same,LIVER,9 h,6.8 g
same,A/G,9 h,0.9
same,ALP,9 h,1400.4 IU/L
same,ALT,9 h,39.4 IU/L
same,AST,9 h,70.8 IU/L
same,BUN,9 h,13 mg/dL
same,CRE,9 h,0.2 mg/dL
same,Ca,9 h,10.8 mg/dL
same,Cl,9 h,107 meq/L
same,DBIL,9 h,0.02 mg/dL
same,GLC,9 h,179.2 mg/dL
same,IP,9 h,10.8 mg/dL
same,K,9 h,4 meq/L
same,LDH,9 h,78.2 IU/L
same,Na,9 h,141.8 meq/L
same,PL,9 h,147.8 mg/dL
same,RALB,9 h,2.6 g/dL
same,TBIL,9 h,0.064 mg/dL
same,TC,9 h,88 mg/dL
same,TG,9 h,29.4 mg/dL
same,TP,9 h,5.5 g/dL
same,gamma-GTP,9 h,1.4 IU/L
same,TERMINAL_BW,24 h,193.2 g
same,APTT,24 h,15.4 s
same,Bas,24 h,0%
same,Eos,24 h,0.8%
same,Fbg,24 h,224.4 mg/dL
same,Hb,24 h,12.9 g/dL
same,Ht,24 h,38%
same,Lym,24 h,79.6%
same,MCH,24 h,21.5 pg
same,MCHC,24 h,33.9%
same,MCV,24 h,63.3 fL
same,Mono,24 h,2.8%
same,Neu,24 h,16.4%
same,PT,24 h,12.9 s
same,Plat,24 h,112.9 x10_4/uL
same,RBC,24 h,600.8 x10_4/ul
same,Ret,24 h,8.5%
same,WBC,24 h,84.8 x10_2/uL
same,KIDNEY_L,24 h,0.9 g
same,KIDNEY_R,24 h,0.9 g
same,KIDNEY_TOTAL,24 h,1.7 g
same,LIVER,24 h,8.9 g
same,A/G,24 h,0.9
same,ALP,24 h,1694.4 IU/L
same,ALT,24 h,52.2 IU/L
same,AST,24 h,79 IU/L
same,BUN,24 h,12 mg/dL
same,CRE,24 h,0.2 mg/dL
same,Ca,24 h,10.4 mg/dL
same,Cl,24 h,106 meq/L
same,DBIL,24 h,0.018 mg/dL
same,GLC,24 h,186 mg/dL
same,IP,24 h,8.1 mg/dL
same,K,24 h,4 meq/L
same,LDH,24 h,103.2 IU/L
same,Na,24 h,142.6 meq/L
same,PL,24 h,146.8 mg/dL
same,RALB,24 h,2.5 g/dL
same,TBIL,24 h,0.062 mg/dL
same,TC,24 h,76.8 mg/dL
same,TG,24 h,100 mg/dL
same,TP,24 h,5.4 g/dL
same,gamma-GTP,24 h,1.4 IU/L

# From ChEMBL document CHEMBL3885861, “Open TG-GATES”
